Measurements as given in PMC9681850, “Structural basis of synthetic agonist activation of the nuclear receptor REV-ERB” (Nature Communications, 2022).
Where “and” joins values, the source holds several entries; their conditions need not be identical. Equal entries are not always repeated.

Tests used:
[1] = molecular target: NCoR1-VP16 fusion protein (a fragment of the NCoR1 corepressor); test: two-hybrid reporter assay (Gal4-FL REV-ERBα/NCoR1-VP16); details: HEK293 cells with Gal4UAS luciferase reporter; read at the highest dose shared with WT, log [STL1267] (µM) about 0.4; parent: est. 49; read off a plot
BMAL1 in HepG2 cells = test: expression of BMAL1 by qPCR; type: cell-based, human; set-up: key: Bmal1 expression normalized to Ppia; details: 5 μM, 24 h, single replicates (n = 4)
From the text: We next determined whether STL1267 can regulate characterized REV-ERB modulated genes in cell lines expressing REV-ERB naturally. Five micromolar doses of both drugs were used in cell-based experiments from this point on. REV-ERB is an established component of the core molecular clock repressing the expression of core clock gene Bmal1[6],[27] as well as others[28],[29]. […] In skeletal muscle, REV-ERB agonism increases the expression of a wide variety of genes important in mitochondrial function.
The human hepatocellular carcinoma cell line, HepG2 cells (ATCC HB-8065), were cultured in 10% FBS 1% L-Glu MEM at 37 °C in a humidified atmosphere of 5% CO2. Prior to RNA extraction cells were treated with either DMSO or REV-ERB agonist for 24 h. The C2C12 proliferating mouse myoblast cells (ATCC, CRL-1772) were cultured in 10% FBS DMEM at 37 °C in a humidified atmosphere of 5% CO2. Prior to RNA extraction cells were treated with either DMSO or REV-ERB agonist for 24 h. Prior to crystal violet cytotoxicity assay, cells were treated with either DMSO or REV-ERB agonist for 48 h.
Mouse tissue was homogenized using a bullet blender. DNA/protein was removed by phase separation using BCP/chloroform. The supernatant (RNA containing fraction) was collected, and RNA was precipitated using isopropanol. The RNA pellets were washed with 75% ethanol and resolubilized in RNAse free water. […]

[2] = test system: proliferating C2C12 mouse myoblast cells; test: cell viability by crystal violet staining; type: cell-based; details: for cell viability (Fig. 2b source data): crystal violet, normalized to DMSO, single replicates; for reduction in cellular viability: proliferating C2C12 cells
Procedure: (§1) Cellular viability was tested in two cell types, human hepatocarcinoma HepG2 cells and proliferating C2C12 mouse myoblast cells.
(§2) Data are presented as mean ± SEM. Source data are available as a Source Data file.
(§3) The human hepatocellular carcinoma cell line, HepG2 cells (ATCC HB-8065), were cultured in 10% FBS 1% L-Glu MEM at 37 °C in a humidified atmosphere of 5% CO2. Prior to RNA extraction cells were treated with either DMSO or REV-ERB agonist for 24 h. The C2C12 proliferating mouse myoblast cells (ATCC, CRL-1772) were cultured in 10% FBS DMEM at 37 °C in a humidified atmosphere of 5% CO2. Prior to RNA extraction cells were treated with either DMSO or REV-ERB agonist for 24 h. […]
(§4) […] Media was removed, and cells were incubated with 0.5% crystal violet solution for 20 min at room temperature with mild agitation. Cells were washed four times with tap water before being air drying overnight. Cells were incubated in methanol for 20 min with mild agitation. Absorbance was read at 570 nm, and readings were normalized to vehicle (DMSO) treated cells.

REV-ERB regulated genes = test system: REV-ERB regulated genes; set-up: method as in ref 17 re-assessed; ref 48; details: RNA-seq data of ref 17 re-assessed; cited from earlier work
HepG2 cells = test: cell viability by crystal violet staining; type: cell-based, human; details: for cell viability (Fig 2a source data): crystal violet, normalized to DMSO, single replicates
Procedure: as §1, §2, §3, §4

Row | Compound | response (Normalized RLU) [1] | Bmal1 (Fig. 2c) expression (BMAL1 in HepG2 cells) | cell viability (Fig. 2b source data) ([2]; C2C12, 1 uM) | cell viability (Fig. 2b source data) ([2]; C2C12, 2 uM) | cell viability (Fig. 2b source data) ([2]; C2C12, 5 uM) | cell viability (Fig. 2b source data) ([2]; C2C12, 10 uM) | cell viability (Fig. 2b source data) ([2]; C2C12, 20 uM) | reduction in cellular viability ([2]; 10 μM) | reduction in cellular viability ([2]; 20 μM) | REV-ERB regulated genes still regulated in Rev-erbα/β DKO hepatocytes (REV-ERB regulated genes) [%] | cell viability (Fig 2a source data) (HepG2 cells; HepG2, 1uM, listed as SR009) | cell viability (Fig 2a source data) (HepG2 cells; HepG2, 2uM, listed as SR909) | cell viability (Fig 2a source data) (HepG2 cells; HepG2, 5uM) | cell viability (Fig 2a source data) (HepG2 cells; HepG2, 10uM) | cell viability (Fig 2a source data) (HepG2 cells; HepG2, 20uM) | reduction in cell viability (HepG2 cells; HepG2 cells, 10 and 20 μM)
1 | full length human REV-ERBα fused to the GAL4 DNA-binding domain (wild type) (from UniProt P20393) F488A | 73 |  |  |  |  |  |  |  |  |  |  |  |  |  |  | 
2 | CCOC(=O)N1CCC(CN(Cc2ccc(Cl)cc2)Cc2ccc([N+](=O)[O-])s2)C1 (centres unmarked) [SR9009, reference compound] |  | 0.6576 and 0.6833 and 0.6229 and 0.6990 | 96.141 and 87.1558 and 95.0006 and 119.571 and 103.64 | 73.3671 and 83.0434 and 96.4175 and 95.0006 and 98.2145 and 106.301 and 112.141 and 107.994 | 97.5233 and 96.3829 and 104.02 and 104.331 and 114.111 and 109.239 and 109.791 and 104.884 | 81.4883 and 68.2525 and 56.4681 and 49.4183 and 62.032 and 78.1707 and 78.3435 and 86.2228 | 29.4436 and 32.6575 and 37.392 and 34.0399 and 33.6597 and 55.6387 and 64.9695 and 68.7363 | ~ 25% | ~ 50% | 39 | 97.2789 and 85.5104 and 113.189 and 114.805 and 107.077 and 107.33 and 98.8951 and 92.8847 | 100.006 and 84.3488 and 101.774 and 112.583 and 88.7935 and 85.3589 and 86.1671 and 96.3697 | 99.2992 and 90.5108 and 87.6823 and 102.582 and 76.621 and 82.8335 and 95.5616 and 87.3793 | 106.875 and 80.1566 and 109.199 and 93.9453 and 73.8936 and 70.661 and 84.7528 and 82.682 | 91.723 and 73.742 and 95.107 and 95.2585 and 84.7528 and 75.1058 and 92.3796 and 105.158 | ~ 10%
3 | full length human REV-ERBα fused to the GAL4 DNA-binding domain (wild type) (from UniProt P20393) F443A | 7 |  |  |  |  |  |  |  |  |  |  |  |  |  |  | 
